For experiment [1], the system named is GSK3β ser9 phosphorylation. Nature of the experiment: GSK3β ser9 phosphorylation in xenograft tissues of treated mice. The format is in vivo. To be noted: human tumor xenograft-bearing mice. The procedure: (§1) Protein lysates were prepared by incubation in RIPA Buffer (50 mM Tris-HCl, 150 mM NaCl, 1 mM EDTA, 1% NP40, 0.25% Sodium deoxycholate, 1 mM sodium fluoride, 1 mM sodium orthovanadate and Complete™ protease inhibitors (Roche Cat# 10019600) for one hour with rotation. The lysate was then centrifuged (10 minutes@ 10,000 rpm), supernatant harvested and protein concentrations were determined using the Bio-Rad DC Protein Assay (cat# 500-0122). Proteins were separated by SDS-PAGE using 4-20% tris-glycine gels (Invitrogen, cat# EC6028) and transferred to Hyper™-bond PVDF membrane (Amersham, cart# rpn303F). All primary antibodies were incubated overnight at 4° C. in 5% milk/1×PBS (Gibco, cat# 70011-044) solution. Horseradish peroxidase (HRP) linked secondary antibodies (Santa Cruz, cat# sc-2055, sc-2054) were incubated for a minimum of two hours prior to detection. Specific signal was determined by the Lumi-Imager™ and Lumi-Analyst software to define changes in protein expression and phosphorylation. […]
Approximately 5×10^6 tumor cells are implanted subcutaneously into the flank of athymic nude mice (Harlan, Indianapolis, Ind.). […] Body weight and tumor size are monitored weekly or twice weekly.
For orientation: In xenograft studies the graft and the host belong to different species.

The test system of experiment [2] is U87MG glioblastoma xenografts. Nature of the experiment: In vivo tumor inhibition, U87MG xenografts. The arrangement: species or system athymic nude mice. The source says: (§2) Approximately 5×10^6 tumor cells are implanted subcutaneously into the flank of athymic nude mice (Harlan, Indianapolis, Ind.). Treatment of tumors begins when the tumors reach 100 mm^3 and continues for 21 consecutive days twice per day PO. Body weight and tumor size are monitored weekly or twice weekly.

For the next experiment, the system named is ribosomal protein S6. As to the kind of experiment: Phosphorylation of ribosomal protein S6 (western blot, AKT pathway readout). The experiment is classed as cell-based. The following applies: readout of AKT pathway activity. As for the experimental part: as §1
A general note: Immunoblotting shows a protein as a band on a membrane.

The test system of experiment [3] is forkhead transcription factor AFX. As to the kind of experiment: Phosphorylation of AFX (western blot, AKT pathway readout). The experiment is classed as cell-based. To be noted: readout of AKT pathway activity. As for the experimental part:
as §1

Experiment [4] deals with human cancer cell lines derived from prostate (both androgen-dependent and independent cell lines). As to the kind of experiment: Apoptosis assay (Cell Death Detection ELISA), prostate. The format is cell-based. The source says:
(§3) Apoptosis assays were executed using the Cell Death Detection ELISAPIUS (Roche, 1774425) assay kit strictly following the enclosed protocol.

Experiment [5] concerns xenografts from the androgen-independent prostate carcinoma cell line PC3. Nature of the experiment: In vivo tumor inhibition, PC3 xenografts. The arrangement: species or system athymic nude mice.
Source text: as §2

The test system of experiment [6] is HCT116 colon cancer xenografts. As to the kind of experiment: In vivo tumor inhibition, HCT116 xenografts. The arrangement: species or system athymic nude mice.
Source text: as §2

The next experiment concerns the target T1, recombinant PDK-1 (Homo sapiens, UniProt O15530).
T1 construct: purchased UBI
T1 sequence (O15530 1-556): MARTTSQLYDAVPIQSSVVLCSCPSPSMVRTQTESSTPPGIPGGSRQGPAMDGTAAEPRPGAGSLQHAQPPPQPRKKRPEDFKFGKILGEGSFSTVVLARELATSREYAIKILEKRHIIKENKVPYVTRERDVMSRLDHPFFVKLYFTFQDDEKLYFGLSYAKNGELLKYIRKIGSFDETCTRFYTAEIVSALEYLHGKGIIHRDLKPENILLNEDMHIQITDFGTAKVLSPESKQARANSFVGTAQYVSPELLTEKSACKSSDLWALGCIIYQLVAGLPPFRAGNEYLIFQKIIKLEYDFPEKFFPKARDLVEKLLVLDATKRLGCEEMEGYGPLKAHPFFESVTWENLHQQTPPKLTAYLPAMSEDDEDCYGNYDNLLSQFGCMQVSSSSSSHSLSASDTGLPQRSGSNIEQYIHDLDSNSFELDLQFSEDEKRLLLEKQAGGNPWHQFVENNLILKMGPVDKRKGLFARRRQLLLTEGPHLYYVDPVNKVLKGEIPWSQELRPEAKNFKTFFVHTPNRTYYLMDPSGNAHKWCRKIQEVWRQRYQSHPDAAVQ
Nature of the experiment: PDK-1 kinase activity assay (PDK-tide phosphorylation, phosphocellulose filter plates). The format is biochemical. To be noted: at Km for ATP and PDKtide saturation; read-out: inhibits PDK-1, EC50. The procedure: (§4) The assay described measures the phosphorylation of the PDK1 consensus phosphorylation site PDK-tide peptide ([…]; cat # 14452, lot 23876U) by recombinant PDK-1 (UBI) at Km for ATP and PDKtide saturation using phosphocellulose membrane filter plates. Phosphorylation of the p70S6 kinase substrate by recombinant p70S6 kinase is also measured similarly.

The target of another experiment is recombinant p70S6 kinase (Homo sapiens, UniProt P23443). As to the kind of experiment: p70S6 kinase activity assay. The following applies: read-out: inhibits p70S6kinase, EC50. The format is biochemical. The procedure:
as §4

The test system of experiment [7] is human cancer cell lines derived from lung. As to the kind of experiment: Apoptosis assay (Cell Death Detection ELISA), lung. The format is cell-based.
Source text: as §3
In general terms: An ELISA detects its analyte on a solid surface through an enzyme-linked reagent.

A further experiment relates to 4EBP1. Nature of the experiment: Phosphorylation of 4EBP1 (western blot, AKT pathway readout). The experiment is classed as cell-based. The following applies: readout of AKT pathway activity. As for the experimental part:
as §1

In experiment [8] the test system is human cancer cell lines from non-Hodgkin's lymphoma. As to the kind of experiment: Apoptosis assay (Cell Death Detection ELISA), non-Hodgkin's lymphoma. The format is cell-based.
Source text: as §3

Experiment [9] has as its system human cancer cell lines derived from colon. Nature of the experiment: Apoptosis assay (Cell Death Detection ELISA), colon. The format is cell-based. As for the experimental part:
Both HCT116 colon carcinoma (cat#CCL-247) and U87MG glioblastoma (cat#HTB-14) cell lines were obtained from the American Type Culture Collection (ATCC). The standard growth media differed for each cell line but all were grown in 10% heat-inactivated FBS (Invitrogen cat# 10082-147), 37° C., 5% CO2 atmosphere and in a humidified chamber. Cell passage was completed one to two times per week using 0.25% trypsin/1 mM EDTA (Invitrogen, cat# 25200-056) solution maintaining cells in log phase growth. U87MG cells were cultured in DMEM media (Invitrogen cat# 11965-092), 1 mM non-essential amino acids (NEAA), and 0.1 mM Sodium Pyruvate. HCT116 cells were grown in McCoy's 5A Modified media (Invitrogen, cat# 16600-082), 0.15% sodium bicarbonate, 0.1 mM HEPES, 25 mM D-glucose and 0.1 mM sodium Pyruvate.
as §3

For another experiment, the system named is GSK3β. As to the kind of experiment: Phosphorylation of GSK3β (western blot, AKT pathway readout). The following applies: readout of AKT pathway activity. The experiment is classed as cell-based. The procedure:
as §1

Molecules are shown by their SMILES. Where only a bound is given, the exact number is not on record here.

recombinant p70S6 kinase, sequence (P23443 whole entry): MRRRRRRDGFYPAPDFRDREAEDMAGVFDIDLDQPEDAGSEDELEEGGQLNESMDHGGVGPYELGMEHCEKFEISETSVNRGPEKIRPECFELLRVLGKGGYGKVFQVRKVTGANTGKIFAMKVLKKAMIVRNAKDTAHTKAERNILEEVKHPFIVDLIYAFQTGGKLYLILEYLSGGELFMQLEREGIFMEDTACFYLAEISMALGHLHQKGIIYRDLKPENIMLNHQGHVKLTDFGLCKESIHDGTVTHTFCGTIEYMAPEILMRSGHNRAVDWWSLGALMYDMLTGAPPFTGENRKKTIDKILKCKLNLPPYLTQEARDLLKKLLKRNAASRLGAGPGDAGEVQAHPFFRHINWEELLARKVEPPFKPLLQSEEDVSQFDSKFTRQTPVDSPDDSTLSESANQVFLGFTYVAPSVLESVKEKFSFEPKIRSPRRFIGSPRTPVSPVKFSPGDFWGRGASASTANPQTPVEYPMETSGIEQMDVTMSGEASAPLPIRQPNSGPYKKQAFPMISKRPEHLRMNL

Usually EC50 stands for the concentration needed to bring the measured effect to its halfway point. On to `Cn1cc(C2=C(c3cn(C4CCNCC4)c4ccccc34)C(=O)NC2=O)c2ccccc21` [Compound 1], for which the “GSK3β ser9 phosphorylation in xenograft tissues” value in [1] (including an androgen-independent prostate carcinoma cell line) is listed as “suppresses GSK3β ser9 phosphorylation”. The “duration of suppression of GSK3β ser9 phosphorylation post dosing” value in experiment [1] (post dosing) is recorded as “up to 8 hours”. In addition, the anti-tumor efficacy result in experiment [2], in [5] and in experiment [6] was “has been demonstrated” throughout. The “phosphorylation of ribosomal protein S6” value with ribosomal protein S6 is listed as “suppresses phosphorylation”. Moreover, the “phosphorylation of the forkhead transcription factor AFX” value in experiment [3] is “suppresses phosphorylation”. In addition, the induction of apoptosis result in [4], in [7], in experiment [8] and in experiment [9] was “induces apoptosis” in each case. Also, the EC50 on recombinant PDK-1 was 370 nM; at recombinant p70S6 kinase, below 500 nM. The “phosphorylation of 4EBP1” value with 4EBP1 is recorded as “suppresses phosphorylation”. In addition, the “phosphorylation of GSK3β” value in the experiment on GSK3β is reported as “suppresses phosphorylation”.
